ChEMBL document CHEMBL3045426, “Synthesis, Antiviral and Antibacterial Activities of Isatin Mannich Bases” (Med Chem Res, 2005)
In brackets after ≈: the same amount, converted by molar mass.

Test system: Vibrio cholerae
Assay: Antimicrobial activity against Vibrio cholerae 01 after 18 to 20 hr by agar dilution method
Format: functional
Conditions: 1
In the case of `COc1cc(Cc2cnc(/N=C3\C(=O)N(CN4CCN(c5ccc(Cl)cc5)CC4)c4ccc(Cl)cc43)nc2N)cc(OC)c1OC`, the MIC is reported as 4.88 µg/mL (≈ 7.37 µM).

Test system: Priestia megaterium
Assay: Antimicrobial activity against Bacillus megaterium after 18 to 20 hr by agar dilution method
Format: functional
Conditions: not given
`COc1cc(Cc2cnc(/N=C3\C(=O)N(CN4CCN(c5ccc(Cl)cc5)CC4)c4ccc(Cl)cc43)nc2N)cc(OC)c1OC` gave an MIC of 1250 µg/mL (≈ 1890 µM).

Test system: Enterobacter
Assay: Antimicrobial activity against Enterobacter after 18 to 20 hr by agar dilution method
Format: functional
Conditions: not given
`COc1cc(Cc2cnc(/N=C3\C(=O)N(CN4CCN(c5ccc(Cl)cc5)CC4)c4ccc(Cl)cc43)nc2N)cc(OC)c1OC` gave an MIC of 1250 µg/mL (≈ 1890 µM).

Test system: Citrobacter freundii
Assay: Antimicrobial activity against Citrobacter freundii after 18 to 20 hr by agar dilution method
Format: functional
Conditions: not given
In the case of `COc1cc(Cc2cnc(/N=C3\C(=O)N(CN4CCN(c5ccc(Cl)cc5)CC4)c4ccc(Cl)cc43)nc2N)cc(OC)c1OC`, the MIC is reported as 1250 µg/mL (≈ 1890 µM).

Test system: Salmonella enteritidis
Assay: Antimicrobial activity against Salmonella enterica subsp. enterica serovar Enteritidis after 18 to 20 hr by agar dilution method
Format: functional
Conditions: not given
`COc1cc(Cc2cnc(/N=C3\C(=O)N(CN4CCN(c5ccc(Cl)cc5)CC4)c4ccc(Cl)cc43)nc2N)cc(OC)c1OC` showed an MIC of 1250 µg/mL (≈ 1890 µM).

Test system: Salmonella typhimurium
Assay: Antimicrobial activity against Salmonella enterica subsp. enterica serovar Typhimurium after 18 to 20 hr by agar dilution method
Format: functional
Conditions: not given
Compound `COc1cc(Cc2cnc(/N=C3\C(=O)N(CN4CCN(c5ccc(Cl)cc5)CC4)c4ccc(Cl)cc43)nc2N)cc(OC)c1OC` has an MIC of 1250 µg/mL (≈ 1890 µM).

Test system: Proteus mirabilis
Assay: Antimicrobial activity against Proteus mirabilis after 18 to 20 hr by agar dilution method
Format: functional
Conditions: not given
Compound `COc1cc(Cc2cnc(/N=C3\C(=O)N(CN4CCN(c5ccc(Cl)cc5)CC4)c4ccc(Cl)cc43)nc2N)cc(OC)c1OC` has an MIC of 1250 µg/mL (≈ 1890 µM).

Test system: Proteus vulgaris
Assay: Antimicrobial activity against Proteus vulgaris after 18 to 20 hr by agar dilution method
Format: functional
Conditions: not given
Work on `COc1cc(Cc2cnc(/N=C3\C(=O)N(CN4CCN(c5ccc(Cl)cc5)CC4)c4ccc(Cl)cc43)nc2N)cc(OC)c1OC` yielded an MIC of 1250 µg/mL (≈ 1890 µM).

Test system: Edwardsiella tarda
Assay: Antimicrobial activity against Edwardsiella tarda after 18 to 20 hr by agar dilution method
Format: functional
Conditions: not given
`COc1cc(Cc2cnc(/N=C3\C(=O)N(CN4CCN(c5ccc(Cl)cc5)CC4)c4ccc(Cl)cc43)nc2N)cc(OC)c1OC` gave an MIC of 625 µg/mL (≈ 943 µM).

Test system: Escherichia coli
Assay: Antimicrobial activity against Escherichia coli NCTC 10418 after 18 to 20 hr by agar dilution method
Format: functional
Conditions: not given
`COc1cc(Cc2cnc(/N=C3\C(=O)N(CN4CCN(c5ccc(Cl)cc5)CC4)c4ccc(Cl)cc43)nc2N)cc(OC)c1OC` showed an MIC of 1250 µg/mL (≈ 1890 µM).

Test system: Salmonella typhi
Assay: Antimicrobial activity against Salmonella enterica subsp. enterica serovar Typhi after 18 to 20 hr by agar dilution method
Format: functional
Conditions: not given
In the case of `COc1cc(Cc2cnc(/N=C3\C(=O)N(CN4CCN(c5ccc(Cl)cc5)CC4)c4ccc(Cl)cc43)nc2N)cc(OC)c1OC`, the MIC is reported as 1250 µg/mL (≈ 1890 µM).

Test system: Salmonella paratyphi
Assay: Antimicrobial activity against Salmonella enterica subsp. enterica serovar Paratyphi A after 18 to 20 hr by agar dilution method
Format: functional
Conditions: not given
Work on `COc1cc(Cc2cnc(/N=C3\C(=O)N(CN4CCN(c5ccc(Cl)cc5)CC4)c4ccc(Cl)cc43)nc2N)cc(OC)c1OC` yielded an MIC of 625 µg/mL (≈ 943 µM).

Test system: Vibrio parahaemolyticus
Assay: Antimicrobial activity against Vibrio parahaemolyticus after 18 to 20 hr by agar dilution method
Format: functional
Conditions: not given
In the case of `COc1cc(Cc2cnc(/N=C3\C(=O)N(CN4CCN(c5ccc(Cl)cc5)CC4)c4ccc(Cl)cc43)nc2N)cc(OC)c1OC`, the MIC is reported as 2.44 µg/mL (≈ 3.68 µM).

Test system: Vibrio cholerae
Assay: Antimicrobial activity against Vibrio cholerae 0139 after 18 to 20 hr by agar dilution method
Format: functional
Conditions: 139
For `COc1cc(Cc2cnc(/N=C3\C(=O)N(CN4CCN(c5ccc(Cl)cc5)CC4)c4ccc(Cl)cc43)nc2N)cc(OC)c1OC`, the MIC was 1250 µg/mL (≈ 1890 µM).

Test system: Vibrio fluvialis
Assay: Antimicrobial activity against Vibrio fluvialis after 18 to 20 hr by agar dilution method
Format: functional
Conditions: not given
`COc1cc(Cc2cnc(/N=C3\C(=O)N(CN4CCN(c5ccc(Cl)cc5)CC4)c4ccc(Cl)cc43)nc2N)cc(OC)c1OC` showed an MIC of 1250 µg/mL (≈ 1890 µM).

Test system: Vibrio mimicus
Assay: Antimicrobial activity against Vibrio mimicus after 18 to 20 hr by agar dilution method
Format: functional
Conditions: not given
`COc1cc(Cc2cnc(/N=C3\C(=O)N(CN4CCN(c5ccc(Cl)cc5)CC4)c4ccc(Cl)cc43)nc2N)cc(OC)c1OC` showed an MIC of 9.76 µg/mL (≈ 14.7 µM).

Test system: Pseudomonas aeruginosa
Assay: Antimicrobial activity against Pseudomonas aeruginosa after 18 to 20 hr by agar dilution method
Format: functional
Conditions: not given
Work on `COc1cc(Cc2cnc(/N=C3\C(=O)N(CN4CCN(c5ccc(Cl)cc5)CC4)c4ccc(Cl)cc43)nc2N)cc(OC)c1OC` yielded an MIC of 2500 µg/mL (≈ 3770 µM).

Test system: Staphylococcus aureus
Assay: Antimicrobial activity against Staphylococcus aureus after 18 to 20 hr by agar dilution method
Format: functional
Conditions: not given
In the case of `COc1cc(Cc2cnc(/N=C3\C(=O)N(CN4CCN(c5ccc(Cl)cc5)CC4)c4ccc(Cl)cc43)nc2N)cc(OC)c1OC`, the MIC is reported as 1250 µg/mL (≈ 1890 µM).

Test system: Morganella morganii
Assay: Antimicrobial activity against Morganella morganii after 18 to 20 hr by agar dilution method
Format: functional
Conditions: not given
Compound `COc1cc(Cc2cnc(/N=C3\C(=O)N(CN4CCN(c5ccc(Cl)cc5)CC4)c4ccc(Cl)cc43)nc2N)cc(OC)c1OC` has an MIC of 1250 µg/mL (≈ 1890 µM).

Test system: Shigella boydii
Assay: Antimicrobial activity against Shigella boydii after 18 to 20 hr by agar dilution method
Format: functional
Conditions: not given
With `COc1cc(Cc2cnc(/N=C3\C(=O)N(CN4CCN(c5ccc(Cl)cc5)CC4)c4ccc(Cl)cc43)nc2N)cc(OC)c1OC` the MIC was 39.1 µg/mL (≈ 59 µM).

Test system: Plesiomonas
Assay: Antimicrobial activity against Plesiomonas after 18 to 20 hr by agar dilution method
Format: functional
Conditions: not given
For `COc1cc(Cc2cnc(/N=C3\C(=O)N(CN4CCN(c5ccc(Cl)cc5)CC4)c4ccc(Cl)cc43)nc2N)cc(OC)c1OC`, the MIC was 19.5 µg/mL (≈ 29.5 µM).

Test system: Shigella sonnei
Assay: Antimicrobial activity against Shigella sonnei after 18 to 20 hr by agar dilution method
Format: functional
Conditions: not given
Work on `COc1cc(Cc2cnc(/N=C3\C(=O)N(CN4CCN(c5ccc(Cl)cc5)CC4)c4ccc(Cl)cc43)nc2N)cc(OC)c1OC` yielded an MIC of 1250 µg/mL (≈ 1890 µM).

Test system: Klebsiella pneumoniae
Assay: Antimicrobial activity against Klebsiella pneumoniae after 18 to 20 hr by agar dilution method
Format: functional
Conditions: not given
With `COc1cc(Cc2cnc(/N=C3\C(=O)N(CN4CCN(c5ccc(Cl)cc5)CC4)c4ccc(Cl)cc43)nc2N)cc(OC)c1OC` the MIC was 1250 µg/mL (≈ 1890 µM).

Test system: Klebsiella pneumoniae
Assay: Antimicrobial activity against Klebsiella pneumoniae subsp. ozaenae after 18 to 20 hr by agar dilution method
Format: functional
Conditions: not given
Compound `COc1cc(Cc2cnc(/N=C3\C(=O)N(CN4CCN(c5ccc(Cl)cc5)CC4)c4ccc(Cl)cc43)nc2N)cc(OC)c1OC` has an MIC of 1250 µg/mL (≈ 1890 µM).

Test system: Mycobacterium tuberculosis
Assay: Antimycobacterial activity against Mycobacterium tuberculosis H37Rv ATCC 27294 at 6.25 ug/ml by MABA
Format: functional
Conditions: not given
For `COc1cc(Cc2cnc(/N=C3\C(=O)N(CN4CCN(c5ccc(Cl)cc5)CC4)c4ccc(Cl)cc43)nc2N)cc(OC)c1OC`, the inhibition at 6.25 µg/mL was 40%.

Test system: not listed separately
Assay: Cytotoxicity against Homo sapiens (human) HuH7 cells assessed as cell growth at 50 ug/ml after 3 days by Neutral red assay
Format: cell-based, Huh-7
Conditions: read-out: Activity
In the case of `COc1cc(Cc2cnc(/N=C3\C(=O)N(CN4CCN(c5ccc(Cl)cc5)CC4)c4ccc(Cl)cc43)nc2N)cc(OC)c1OC`, the viability at 72 h, 50 ug/ml is reported as 56%.

Test system: not listed separately
Assay: Cytotoxicity against Homo sapiens (human) CEM cells after 5 days by MTT assay
Format: cell-based
Conditions: CEM cells (CCRF-CEM)
`COc1cc(Cc2cnc(/N=C3\C(=O)N(CN4CCN(c5ccc(Cl)cc5)CC4)c4ccc(Cl)cc43)nc2N)cc(OC)c1OC` gave a CC50 at 120 h of 40.1 µg/mL (≈ 60.5 µM).

Test system: Human immunodeficiency virus 1
Assay: Antiviral activity against Human immunodeficiency virus 1 IIIB infected CEM cells assessed as protection against viral infection after 6 days by XTT assay
Format: functional, CCRF-CEM
Design: concentration or dose not given beside the values
Conditions: not given
For `COc1cc(Cc2cnc(/N=C3\C(=O)N(CN4CCN(c5ccc(Cl)cc5)CC4)c4ccc(Cl)cc43)nc2N)cc(OC)c1OC`, the Activity was 22.64%.

Test system: Human immunodeficiency virus 1
Assay: Antiviral activity against Human immunodeficiency virus 1 IIIB infected CEM cells assessed as inhibition of virus-induced cytopathicity after 6 days by XTT assay
Format: functional, organism-based
Conditions: CCRF-CEM, 144 h
In the case of `COc1cc(Cc2cnc(/N=C3\C(=O)N(CN4CCN(c5ccc(Cl)cc5)CC4)c4ccc(Cl)cc43)nc2N)cc(OC)c1OC`, the EC50 is reported as greater than 40.1 µg/mL.

Test system: not listed separately
Assay: Cytotoxicity against Homo sapiens (human) MT4 cells after 5 days by MTT assay
Format: cell-based
Conditions: not given
In the case of `COc1cc(Cc2cnc(/N=C3\C(=O)N(CN4CCN(c5ccc(Cl)cc5)CC4)c4ccc(Cl)cc43)nc2N)cc(OC)c1OC`, the CC50 at 120 h is reported as 38.6 µg/mL (≈ 58.3 µM).

Test system: Human immunodeficiency virus 1
Assay: Antiviral activity against Human immunodeficiency virus 1 IIIB infected MT4 cells assessed as inhibition of virus-induced cytopathicity after 5 days by MTT assay
Format: functional, organism-based
Conditions: MT4, 120 h
With `COc1cc(Cc2cnc(/N=C3\C(=O)N(CN4CCN(c5ccc(Cl)cc5)CC4)c4ccc(Cl)cc43)nc2N)cc(OC)c1OC` the EC50 was greater than 38.6 µg/mL.

Test system: Hepatitis C virus
Assay: Antiviral activity against Hepatitis C virus BM4-5 infected in Huh7 cells assessed as inhibition of viral RNA replication by phosphor screening method
Format: functional, Hepacivirus hominis, Huh-7
Conditions: not given
In the case of `COc1cc(Cc2cnc(/N=C3\C(=O)N(CN4CCN(c5ccc(Cl)cc5)CC4)c4ccc(Cl)cc43)nc2N)cc(OC)c1OC`, the “inhibition (INH)” value is reported as 99%.

Test system: Human immunodeficiency virus 1
Assay: Antiviral activity against Human immunodeficiency virus 1 IIIB infected MT4 cells assessed as protection against viral infection after 5 days by MTT assay
Format: functional
Design: concentration or dose not given beside the values
Conditions: not given
`COc1cc(Cc2cnc(/N=C3\C(=O)N(CN4CCN(c5ccc(Cl)cc5)CC4)c4ccc(Cl)cc43)nc2N)cc(OC)c1OC` gave an Activity of 32.6%.
